Data published in publication PMC9478340, “Inhibitors targeting the autophosphorylation of serine/threonine kinase of Streptococcus suis show potent antimicrobial activity” (Frontiers in Microbiology, 2022).

What follows are compounds tested against T1, serine/threonine kinase (ssSTK) (Streptococcus suis, UniProt A0A0H3MXV7) (assay: Kinase-Glo ATP consumption assay of autophosphorylation; confirmed by anti-P-Thr western blot).
T1 construct: gene SSUBM407_0373; 6 × his-tagged kinase domain of ssSTK (ssSTK^KD, pET28a-stk^KD) is the wild-type expression construct described; the assay text says 'purified ssSTK'
T1 sequence (A0A0H3MXV7 entry or part of it): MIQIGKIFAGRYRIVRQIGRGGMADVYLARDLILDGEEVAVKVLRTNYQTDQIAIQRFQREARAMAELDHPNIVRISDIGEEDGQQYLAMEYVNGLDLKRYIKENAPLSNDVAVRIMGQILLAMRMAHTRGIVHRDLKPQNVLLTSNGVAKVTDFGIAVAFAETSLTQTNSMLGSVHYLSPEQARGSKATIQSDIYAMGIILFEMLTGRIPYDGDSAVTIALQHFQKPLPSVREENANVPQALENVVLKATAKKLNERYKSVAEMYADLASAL
Format: biochemical

Structure (SMILES) | IC50
CN[C@@H]1C[C@H]2O[C@@](C)([C@@H]1OC)n1c3ccccc3c3c4c(c5c6ccccc6n2c5c31)C(=O)NC4 [Staurosporine] | 8.97 µM
O=C(Nc1c[nH]nc1-c1nc2cc(CN3CCOCC3)ccc2[nH]1)NC1CC1 [AT9283] | 10.6 µM
COC(=O)[C@@]1(O)C[C@H]2O[C@]1(C)n1c3ccccc3c3c4c(c5c6ccccc6n2c5c31)C(=O)NC4 [K252a] | 13.8 µM
c1cc(Nc2cc(C3CC3)[nH]n2)nc(Nc2ccc3[nH]cnc3c2)n1 [APY29] | 10.1 µM
